Measured values taken from US20230167073A1 (Teijin Pharma Limited, priority 2020, published 2023).

These molecules were tested against T1, Human TRPC6 (Homo sapiens, UniProt Q9Y210) (assay: Evaluation of TRPC6 channel inhibitory activity (1), FLIPR Calcium 5 Assay Kit, OAG stimulation (Compound Nos. 1-1293)). Conditions: Human TRPC6 stably-expressing cells, OAG 30 μM, FLIPR Calcium 5 Assay Kit; read-out: Inhibitory activity (pIC50 class) (converted).
T1 construct: expressed in transfected cells
T1 sequence (Q9Y210 1-931): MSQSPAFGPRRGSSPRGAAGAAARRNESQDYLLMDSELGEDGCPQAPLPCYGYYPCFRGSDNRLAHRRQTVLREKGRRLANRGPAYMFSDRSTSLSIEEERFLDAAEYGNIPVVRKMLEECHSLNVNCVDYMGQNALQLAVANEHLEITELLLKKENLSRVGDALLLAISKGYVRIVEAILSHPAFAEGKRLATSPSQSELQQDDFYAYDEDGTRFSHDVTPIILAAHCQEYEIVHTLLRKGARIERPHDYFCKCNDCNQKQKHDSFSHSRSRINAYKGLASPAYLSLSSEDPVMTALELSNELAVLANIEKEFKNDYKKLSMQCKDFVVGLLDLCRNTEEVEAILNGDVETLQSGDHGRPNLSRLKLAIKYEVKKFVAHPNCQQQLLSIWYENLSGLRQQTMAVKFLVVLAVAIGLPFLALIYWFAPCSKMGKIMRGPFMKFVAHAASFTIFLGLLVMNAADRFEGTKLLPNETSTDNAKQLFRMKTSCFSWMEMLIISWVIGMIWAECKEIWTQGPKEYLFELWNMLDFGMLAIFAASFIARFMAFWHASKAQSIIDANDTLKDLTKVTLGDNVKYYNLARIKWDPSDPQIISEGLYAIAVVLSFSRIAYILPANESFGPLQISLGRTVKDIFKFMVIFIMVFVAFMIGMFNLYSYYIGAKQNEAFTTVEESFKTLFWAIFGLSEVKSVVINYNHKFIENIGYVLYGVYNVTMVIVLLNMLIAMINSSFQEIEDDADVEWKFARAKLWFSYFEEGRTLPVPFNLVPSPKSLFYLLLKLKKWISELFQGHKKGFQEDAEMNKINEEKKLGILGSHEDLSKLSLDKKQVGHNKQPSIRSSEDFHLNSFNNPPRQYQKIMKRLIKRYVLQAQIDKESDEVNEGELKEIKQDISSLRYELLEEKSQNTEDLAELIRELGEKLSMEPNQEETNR
Assay type: cell-based
Procedure, shortened: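 TRPC6 (human) stable cells, 24 h culture; Ca5 no-wash dye + probenecid 30 min; cpd 20 min; OAG 30 μM final; ΔF (pre-cpd min to post-OAG max); 0%/100% = no cpd / no cpd + no OAG; 4PL → pIC50, binned +/++/+++.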

Row | SMILES | IC50
1 | Cn1nc(-c2cscn2)cc1Oc1cc(C#N)ccc1-c1ncc(CCN)cn1 [compound 952, 4-[5-(2-aminoethyl)pyrimidin-2-yl]-3-[2-methyl-5-(1,3-thiazol-4-yl)pyrazol-3-yl]oxybenzonitrile] | < 10 nM
2 | N#Cc1ccc(-c2ncc(CCN)cn2)c(Oc2nnc(N3CCCCC3)s2)c1 [compound 704, 4-[5-(2-aminoethyl)pyrimidin-2-yl]-3-[(5-piperidin-1-yl-1,3,4-thiadiazol-2-yl)oxy]benzonitrile] | < 10 nM
3 | COCCCN(C)c1cc(Oc2cc(C#N)ccc2-c2ncc(CCN)cn2)n(C)n1 [compound 800, 4-[5-(2-aminoethyl)pyrimidin-2-yl]-3-[5-[3-methoxypropyl(methyl)amino]-2-methylpyrazol-3-yl]oxybenzonitrile] | 10 to 1000 nM
4 | Cc1nc(OCC2CCC2)cc(Oc2cc(C#N)ccc2-c2ccc(CCN)cc2)n1 [Compound 43, 4-[4-(2-aminoethyl)phenyl]-3-[6-(cyclobutylmethoxy)-2-methylpyrimidin-4-yl]oxybenzonitrile] | 10 to 1000 nM
5 | Cn1nc(C2CCOCC2)cc1Oc1cc(C#N)ccc1-c1ccc([C@H](O)CN)cn1 [compound 442, 4-[5-[(1S)-2-amino-1-hydroxyethyl]pyridin-2-yl]-3-[2-methyl-5-(oxan-4-yl)pyrazol-3-yl]oxybenzonitrile] | 10 to 1000 nM
6 | Cn1nc(C2CC2)cc1Oc1cc(C#N)ccc1-c1ccc([C@H](O)CN)cn1 [compound 375, 4-[5-[(1S)-2-amino-1-hydroxyethyl]pyridin-2-yl]-3-(5-cyclopropyl-2-methylpyrazol-3-yl)oxybenzonitrile] | < 10 nM
7 | N#Cc1ccc(-c2ccc(CCN)cn2)c(Sc2cnnc(N3CCCCC3)c2)c1 [compound 1243, 4-[5-(2-aminoethyl)pyridin-2-yl]-3-(6-piperidin-1-ylpyridazin-4-yl)sulfanylbenzonitrile] | < 10 nM
8 | CCc1cc(Oc2cc(C#N)ccc2-c2ccc(CCN)cn2)n(C)n1 [Compound 288, 4-[5-(2-aminoethyl)pyridin-2-yl]-3-(5-ethyl-2-methylpyrazol-3-yl)oxybenzonitrile] | < 10 nM
9 | Cc1nc(N2CCOCC2)cc(C2(c3cc(C#N)ccc3-c3ccc(CCN)cc3)CC2)n1 [Compound No. 1227, 4-[4-(2-Aminoethyl)phenyl]-3-[1-(2-methyl-6-morpholin-4-ylpyrimidin-4-yl)cyclopropyl]benzonitrile] | 10 to 1000 nM
10 | N#Cc1ccc(-c2ncc(CCN)cn2)c(Oc2cnnc(-c3ccccc3)c2)c1 [Compound 277, 4-[5-(2-aminoethyl)pyrimidin-2-yl]-3-(6-phenylpyridazin-4-yl)oxybenzonitrile] | < 10 nM
11 | Cc1nc(Oc2cc(C#N)ccc2-c2ccc(C(CN)Oc3ccccc3)cc2)cc(N2CCOCC2)n1 (stereo not drawn) [Compound 13, 4-[4-(2-Amino-1-phenoxyethyl)phenyl]-3-(2-methyl-6-morpholin-4-ylpyrimidin-4-yl)oxybenzonitrile] | 10 to 1000 nM
12 | Cn1nc(-c2ccccn2)cc1Oc1cc(C#N)ccc1-c1ncc(CCN)cn1 [Compound 285, 4-[5-(2-aminoethyl)pyrimidin-2-yl]-3-(2-methyl-5-pyridin-2-ylpyrazol-3-yl)oxybenzonitrile] | < 10 nM
13 | NCCc1cnc(-c2ccc(F)cc2C(=O)c2cnn(CC3CC3)c2)nc1 [compound 1101, [2-[5-(2-aminoethyl)pyrimidin-2-yl]-5-fluorophenyl]-[1-(cyclopropylmethyl)pyrazol-4-yl]methanone] | 10 to 1000 nM
14 | Cc1nc(Oc2cc(C#N)ccc2-n2cc(C(O)CN)cn2)cc(-c2cccc(Cl)c2)n1 (stereo not drawn) [Compound 159, 4-[4-(2-amino-1-hydroxyethyl)pyrazol-1-yl]-3-[6-(3-chlorophenyl)-2-methylpyrimidin-4-yl]oxybenzonitrile] | < 10 nM
15 | Cc1sc(N2CCOCC2)nc1C(=O)c1cc(C#N)ccc1-c1ncc(CN)cn1 [compound 1069, 4-[5-(aminomethyl)pyrimidin-2-yl]-3-(5-methyl-2-morpholin-4-yl-1,3-thiazole-4-carbonyl)benzonitrile] | > 1000 nM
16 | Cc1nc(Oc2cc(C#N)ccc2-c2ccc(C(CN)OCC(=O)O)cc2)cc(N2CCOCC2)n1 (stereo not drawn) [Compound 63, 2-[2-amino-1-[4-[4-cyano-2-(2-methyl-6-morpholin-4-ylpyrimidin-4-yl)oxyphenyl]phenyl]ethoxy] acetic acid] | > 1000 nM
17 | Cn1nc(-c2ccccc2)cc1Oc1cc(C#N)ncc1-c1ccc(CN)cn1 [compound 1278, 5-[5-(aminomethyl)pyridin-2-yl]-4-(2-methyl-5-phenylpyrazol-3-yl)oxypyridine-2-carbonitrile] | 10 to 1000 nM
18 | Cn1nc(C2CC2)cc1Oc1cc(C#N)ccc1-c1ccc(CN)c(C(=O)O)n1 [compound 618, 3-(aminomethyl)-6-[4-cyano-2-(5-cyclopropyl-2-methylpyrazol-3-yl)oxyphenyl]pyridine-2-carboxylic acid] | 10 to 1000 nM
19 | Cc1nc(Oc2cc(C#N)ccc2-c2ncc(CN)cn2)cc(N(C)C)n1 [compound 660, 4-[5-(aminomethyl)pyrimidin-2-yl]-3-[6-(dimethylamino)-2-methylpyrimidin-4-yl]oxybenzonitrile] | > 1000 nM
20 | Cc1cc(Oc2cc(C#N)ccc2-c2ncc(CCN)cn2)cc(-c2nccn2C)n1 [compound 687, 4-[5-(2-aminoethyl)pyrimidin-2-yl]-3-[2-methyl-6-(1-methylimidazol-2-yl)pyridin-4-yl]oxybenzonitrile] | > 1000 nM
21 | Cc1cc(Oc2cc(C#N)ccc2-c2ncc(OCCN)cn2)cc(N2CCOCC2)n1 [compound 387, 4-[5-(2-aminoethoxy)pyrimidin-2-yl]-3-(2-methyl-6-morpholin-4-ylpyridin-4-yl)oxybenzonitrile] | 10 to 1000 nM
22 | Cn1nc(C2CC2)cc1Oc1nc(C#N)ccc1-c1ncc(CCN)cn1 [compound 1281, 5-[5-(2-aminoethyl)pyrimidin-2-yl]-6-(5-cyclopropyl-2-methylpyrazol-3-yl)oxypyridine-2-carbonitrile] | 10 to 1000 nM
23 | Cn1nc(C2CC2)cc1Oc1cc(C#N)ccc1-c1ccc(C(N)CO)cn1 (stereo not drawn) [compound 421, 4-[5-(1-amino-2-hydroxyethyl)pyridin-2-yl]-3-(5-cyclopropyl-2-methylpyrazol-3-yl)oxybenzonitrile] | 10 to 1000 nM
24 | Cn1nc(-c2ccccn2)cc1Oc1cc(C#N)ccc1-c1ccc(CN)cn1 [compound 609, 4-[5-(aminomethyl)pyridin-2-yl]-3-(2-methyl-5-pyridin-2-ylpyrazol-3-yl)oxybenzonitrile] | < 10 nM
25 | Cc1nc(Oc2cc(C#N)ccc2-c2ccc(C(CN)C(F)F)cc2)cc(N2CCOCC2)n1 (stereo not drawn) [Compound 133, 4-[4-(3-amino-1,1-difluoropropan-2-yl)phenyl]-3-(2-methyl-6-morpholin-4-ylpyrimidin-4-yl)oxybenzonitrile] | < 10 nM
26 | Cc1nc(Oc2cc(C#N)ccc2-c2ccc(C3(CN)CC3)cc2)cc(N2CCOCC2)n1 [Compound 67, 4-[4-[1-(aminomethyl)cyclopropyl]phenyl]-3-(2-methyl-6-morpholin-4-ylpyrimidin-4-yl)oxybenzonitrile] | 10 to 1000 nM
27 | N#Cc1ccc(-c2ncc(CN)cn2)c(C(=O)c2nnc(N3CCOCC3)o2)c1 [compound 1090, 4-[5-(aminomethyl)pyrimidin-2-yl]-3-(5-morpholin-4-yl-1,3,4-oxadiazole-2-carbonyl)benzonitrile] | > 1000 nM
